Data as given in ChEMBL document CHEMBL1138510, “Antimalarial peroxide dyads from natural artemisinin and hydroxyalkylated 1,2,4-trioxanes” (2009).

Test system: Plasmodium falciparum
Test: Antiplasmodial activity against Plasmodium falciparum NF54 infected human A+ erythrocytes after 72 hrs as IC ratio relative to dihydroartemisinin
Format: functional

SMILES | Ratio IC50
C=C(C)[C@@H]1OOC(C)(C)O[C@@H]1CCO[C@H]1C[C@@H]2O[C@]3(C)CC[C@H]4[C@H](C)CC[C@@H]([C@H]1C)[C@@]24OO3 | 0.54
C=C(C)[C@@H]1OOC2(CCCCC2)O[C@@H]1CCOC1C[C@@H]2O[C@]3(C)CC[C@H]4[C@H](C)CC[C@@H]([C@H]1C)[C@@]24OO3 (mixture of isomers) | 0.49
